Where no end group is shown, it is not given here.
Tests used:
Format in all cases: cell-based, human
tumour lines = test: Flow cytometry-based PI uptake assay, tumour lines; conditions: 50 μM HBD-3 (highest dose tested), 37°C, 30 min
Method: Cells suspended at 1×10^6 cells/mL in serum-free medium containing 0.1% (w/v) bovine serum albumin (BSA) (Sigma-Aldrich) were treated with HBD-3 at 37°C for 30 min. Nucleic acid stain propidium iodide (PI) was then added to a final concentration of 1 μg/mL and cells subjected to flow cytometry analysis using BD FACSCanto II Flow Cytometer and BD FACSDiva Software v6.1.1 (BD Biosciences, San Jose, CA). For each flow cytometry reading, 10,000 cells, gated appropriately based on forward scattering and side scattering, were recorded. The resultant data were processed using FlowJo software (Tree Star, San Carlos, CA) to determine PI-positivity, which reflects the level of membrane permeabilisation. For lipid inhibition assays, 15 μM HBD-3 was pre-incubated with 50 μM synthetic lipids, including L-α-phosphatidic acid (PA), L-α-phosphatidylcholine (PC), L-α-phosphatidylethanolamine (PE), L-α-phosphatidylserine (PS), L-α-phosphatidylinositol-4-phosphate (PI(4)P), L-α-phosphatidylinositol-3,5-bisphosphate (PI(3,5)P2), L-α-phosphatidylinositol-4,5-bisphosphate (PI(4,5)P2) and L-α-phosphatidylinositol-3,4,5-trisphosphate (PI(3,4,5)P)3. All lipids were sourced from Avanti Polar Lipids, Alabaster, AL. […]

U937 and HeLa cells = test: Confocal laser scanning microscopy of membrane blebbing; conditions: 15 μM HBD-3, 15 min after addition, PKH67 and PI staining
Method: Live imaging was performed on a Zeiss LSM-780 confocal microscope using a 63× oil immersion objective in a 37°C incubator with 5% CO2. Adherent HeLa cells were cultured overnight on coverslips while suspension U937 cells were immobilised onto 0.01% (w/v) poly-L-lysine-coated coverslips. Both cell types were prepared in serum-free RPMI 1640 medium containing 0.1% (w/v) BSA and 2 μg/mL PI. HBD-3 or BODIPY FL EDA-labeled HBD-3 was added directly to the imaging chamber to final concentration of 15 μM, via a capillary tube. In certain experiments, prior to imaging, cells were pre-stained with the membrane dye PKH67 as per manufacturer's instructions (Sigma-Aldrich) or transfected with expression vectors carrying GFP only or GFP-tagged Pleckstrin homology domain of phospholipase C-delta 1 (GFP-PH(PLCδ1)) (kindly provided by Christina Mitchell, Monash University, Australia), using Lipofectamine 3000 reagent (Invitrogen) as per manufacturer's instructions. For CLSM involving transfections, images were taken as 4×4 tiles over 30 min, and the resultant data for GFP and GFP-PH transfected cells were analysed by counting PI-positive cells.

HeLa cells = test: ATP bioluminescence release assay, HeLa; conditions: HBD-3 titrations, bioluminescence for 30 min, PBS with 0.1% BSA, concentration-dependent
Method: (§1) ATP release assay was conducted using an ATP bioluminescence assay kit (Roche Diagnostics, Mannheim, Germany). U937 and HeLa cells were suspended at 1×10^6 cells/mL in PBS containing 0.1% (w/v) BSA, and mixed with luciferase/luciferin reagent at a ratio of 4:5. The mixture was added to HBD-3 samples and the level of ATP release measured immediately as bioluminescence emission signal intensity for 30 min with 30 s intervals.

U937 cells = test: ATP bioluminescence release assay, U937; conditions: HBD-3 titrations, bioluminescence for 30 min, PBS with 0.1% BSA, concentration-dependent
Method: as §1

For “human β-defensin 3 (GIINTLQKYYCRVRGGRCAVLSCLPKEEQIGKCSTRGRKCCRRKK; not fully specified; cysteine pairing not given here; UniProt P81534 23-67, looked up) [HBD-3, human β-defensin 3, cationic antimicrobial peptide, recombinantly expressed in P. pastoris]”, the “cells permeabilised (PI-positive)” value (tumour lines) was “at least 80%”, the “size of membrane blebs formed in PI-positive cells” value (U937 and HeLa cells) was greater than 10 μm and the “cytoplasmic ATP release” value (HeLa cells) was “rapidly released”. For the same substance, the “cytoplasmic ATP release” value (U937 cells) was “rapidly released”.

Reference: article PMC4811302, “Human β-defensin 3 contains an oncolytic motif that binds PI(4,5)P2 to mediate tumour cell permeabilisation” (Oncotarget, 2015)
